From publication PMC6116703, “Ethenesulfonyl fluoride derivatives as telomerase inhibitors: structure-based design, SAR, and anticancer evaluation in vitro” (Journal of Enzyme Inhibition and Medicinal Chemistry, 2018)
Where two headings read alike, the source gives them in different places.

Experiments:
human melanoma cell A375 = experiment: Cell proliferation (MTT) assay, A375; format: cell-based
Description: (§1) The antiproliferative activities evaluation was conducted by using a modified procedure as described in the literature. Briefly, target tumour cells were grown to log phase in RPMI 1640 medium supplemented with 10% fetal bovine serum. After diluting to 3 × 10^4 cells mL^−1 with the complete medium, 100 µL of the obtained cell suspension was added to each well of 96-well culture plates. The subsequent incubation was performed at 37 °C, 5% CO2 atmosphere for 24 h before subjecting to antiproliferation assessment. The tested samples at pre-set concentrations were added to six wells with Doxorubicin (AMD) co-assayed as a positive reference. After 48 h of exposure period, 25 µL of PBS containing 2.5 mg·mL^−1 of MTT was added to each well. After 4 h, the medium was replaced by 150 µL DMSO to dissolve the purple formazan crystals produced. The absorbance at 570 nm of each well was measured using an ELISA plate reader. The data represented the mean of three experiments in triplicate and were expressed as means ± SD using Student’s test.

[1] = test system: human breast cancer cell MDA-MB-231; experiment: Cell proliferation (MTT) assay, MDA-MB-231; format: cell-based
Description: as §1

[2] = test system: human hepatoma cell SMMC-7721; experiment: Cell proliferation (MTT) assay, SMMC-7721; format: cell-based; conditions: read-out: IC50 SMMC-7721
Description: as §1

[3] = test system: human gastric cancer cells SGC-7901; experiment: Cell proliferation (MTT) assay, SGC-7901; format: cell-based; conditions: read-out: IC50 SGC-7901
Description: as §1

[4] = test system: human gastric cancer cells MGC-803; experiment: Cell proliferation (MTT) assay, MGC-803; format: cell-based; conditions: Homo sapiens, read-out: IC50 MGC-803
Description: as §1

[5] = test system: human normal liver cell (L-02); experiment: Proliferative inhibition assay of human normal cell L-02 (MTT); format: cell-based; conditions: Homo sapiens, normal liver cells
Description: as §1
(§2) In order to determine the selective cancer cell toxicity of some title compounds. We subsequently conducted a proliferative inhibition assay with human normal liver cell (L-02) and gastric mucosa cell (GES-1).

[6] = test system: gastric mucosa cell (GES-1); experiment: Proliferative inhibition assay of human normal cell GES-1 (MTT); format: cell-based; conditions: Homo sapiens, GES1, normal gastric mucosa cells
Description: as §1, §2

telomerase = target: T1, telomerase (Homo sapiens, UniProt O14746); experiment: Telomerase activity TRAP-PCR-ELISA assay (A375 cell extract); format: biochemical
T1 construct: endogenous in cells; host or cells: A375 human melanoma cells
Description: Thirty-six compounds were tested in a search for inhibitors of telomerase activity using the TRAP-PCR-ELISA assay. In detail, the A375 cells were firstly maintained in RPMI 1640 buffer (Hyclone, Miami, FL), supplemented with 10% fetal bovineserum (GIBCO, New York, NY), streptomycin (0.1 mg/mL) and penicillin (100 IU/mL) at 37 °C in a humidified atmosphere containing 5% CO2. After trypsinisation, 5 × 10^4 cultured cells in logarithmic growth were seeded into T25 flasks (Corning, New York, NY) and cultured to allow to adherence. […] After 24 h treatment, the cells were harvested by cell scraper orderly followed by washing once with PBS. The cells were lysed in 150 µL RIPA cell lysis buffer (Santa Cruz, Santa Cruz, CA), and incubated on ice for 30 min. The cellular supernatants were obtained via centrifugation at 12,000g for 20 min at 4 °C and stored at –80 °C. The TRAP-PCR-ELISA assay was performed using a telomerase detection kit (Roche, Basel, Switzerland) according to the manufacturer’s protocol. In brief, 2 µL of cell extracts were mixed with 48 µL TRAP reaction mixtures. TRAP primers and Taq polymerase are incubated at 25 °C for 30 min. PCR was then initiated at 94 °C, 120 s for predenaturation and performed using 35 cycles each consisting of 94 °C for 30 s, 50 °C for 30 s, 72 °C for 90 s. Then 20 µL of PCR products were hybridised to a digoxigenin (DIG)-labelled telomeric repeat specific detection probe. And the PCR products were immobilised via the biotin-labelled primer to a streptavidin-coated microtiter plate subsequently. The immobilised DNA fragments were detected with a peroxidase-conjugated anti-DIG antibody and visualised following the addition of the stop regent. The microtitre plate was assessed on TECAN Infinite M200 microplate reader (Mannedorf, Switzerland) at a wavelength of 490 nm, and the final value were presented as mean ± SD[23].

[7] = Homo sapiens, A-375, 48 h, read-out: IC50 A375, antiproliferative, MTT, 48 h exposure
[8] = Homo sapiens, MDA-MB-231, 48 h, read-out: IC50 MDA-MB-231, antiproliferative, MTT, 48 h exposure
[9] = IC50 inhibitory activity against telomerase, TRAP-PCR-ELISA, A375 cells, 24 h treatment
[10] = antiproliferative, MTT, 48 h exposure, read-out: IC50 A375
[11] = antiproliferative, MTT, 48 h exposure, read-out: IC50 MDA-MB-231
[12] = antiproliferative, MTT, 48 h exposure

T1 sequence (O14746 whole entry): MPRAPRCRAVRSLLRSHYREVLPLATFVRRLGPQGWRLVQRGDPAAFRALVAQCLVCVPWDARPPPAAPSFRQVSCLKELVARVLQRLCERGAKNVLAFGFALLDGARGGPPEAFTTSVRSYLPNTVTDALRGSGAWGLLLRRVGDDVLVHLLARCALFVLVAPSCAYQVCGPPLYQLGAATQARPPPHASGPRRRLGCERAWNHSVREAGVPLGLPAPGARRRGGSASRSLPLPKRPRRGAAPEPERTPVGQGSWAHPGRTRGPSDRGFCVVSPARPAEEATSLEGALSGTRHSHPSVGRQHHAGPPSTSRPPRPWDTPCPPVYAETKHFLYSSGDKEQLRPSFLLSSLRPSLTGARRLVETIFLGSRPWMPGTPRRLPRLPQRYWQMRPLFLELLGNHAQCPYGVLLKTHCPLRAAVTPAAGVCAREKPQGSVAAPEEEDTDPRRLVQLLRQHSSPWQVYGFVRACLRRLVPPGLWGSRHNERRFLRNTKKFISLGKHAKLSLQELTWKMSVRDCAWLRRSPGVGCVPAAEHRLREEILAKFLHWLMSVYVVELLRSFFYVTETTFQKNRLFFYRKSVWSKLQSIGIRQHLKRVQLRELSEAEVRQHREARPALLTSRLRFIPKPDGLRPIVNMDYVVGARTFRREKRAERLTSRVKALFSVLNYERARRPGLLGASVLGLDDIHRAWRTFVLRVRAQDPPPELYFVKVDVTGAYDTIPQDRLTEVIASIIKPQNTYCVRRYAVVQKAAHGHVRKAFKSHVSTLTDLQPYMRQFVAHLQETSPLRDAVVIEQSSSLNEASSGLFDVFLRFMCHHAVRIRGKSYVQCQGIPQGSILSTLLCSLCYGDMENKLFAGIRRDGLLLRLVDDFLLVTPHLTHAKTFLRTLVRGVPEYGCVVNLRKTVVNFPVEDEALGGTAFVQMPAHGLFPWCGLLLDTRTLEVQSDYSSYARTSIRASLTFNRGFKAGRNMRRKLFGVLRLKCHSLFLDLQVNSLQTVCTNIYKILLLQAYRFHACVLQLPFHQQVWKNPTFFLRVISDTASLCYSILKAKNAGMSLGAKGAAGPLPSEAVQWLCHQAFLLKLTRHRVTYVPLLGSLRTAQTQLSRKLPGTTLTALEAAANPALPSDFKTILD

Structure (SMILES) | IC50 (human melanoma cell A375; [7]) | IC50 [1, 8] | IC50 [5] | IC50 [6] | IC50 (telomerase; [9]) | IC50 ([2]; Homo sapiens, SMMC-7721, 48 h) | also measured
COc1cccc2c1C(=O)c1c(O)c3c(c(O)c1C2=O)C[C@@](O)(C(=O)CO)C[C@@H]3O[C@H]1C[C@H](N)[C@H](O)[C@H](C)O1 [AMD, Doxorubicin, reference compound] |  |  |  |  |  |  | IC50 (human melanoma cell A375; Homo sapiens, A-375, 48 h, antiproliferative, MTT, 48 h exposure, read-out: IC50 A375): 0.52 ± 0.14 µM; IC50 ([1]; Homo sapiens, MDA-MB-231, 48 h, antiproliferative, MTT, 48 h exposure, read-out: IC50 MDA-MB-231): 0.81 ± 0.11 µM; IC50 ([2]; Homo sapiens, SMMC-7721, antiproliferative, MTT, 48 h exposure): 1.05 ± 0.09 µM; IC50 ([3]; Homo sapiens, SGC-7901, antiproliferative, MTT, 48 h exposure): 0.92 ± 0.08 µM; IC50 ([4]; MGC-803, antiproliferative, MTT, 48 h exposure): 0.67 ± 0.08 µM
O=S(=O)(F)/C=C/c1ccccc1 [Compound 1] | 5.21 ± 0.39 µM | 8.67 ± 0.61 µM | 1970 ± 200 µM | 1450 ± 170 µM | 2.41 ± 0.51 µM |  | 
O=S(=O)(F)/C=C/c1ccc(-c2ccccc2)cc1 [Compound 5] | 5.84 ± 0.33 µM | 8.39 ± 0.89 µM | 1330 ± 150 µM | 2000 ± 250 µM | 0.71 ± 0.28 µM | 4.05 ± 0.2 µM | IC50 ([3]; Homo sapiens, SGC-7901, 48 h): 32.9 ± 1.85 µM; telomerase potency relative to positive control staurosporine (telomerase; ratio of telomerase IC50 values vs staurosporine): 12 times
O=S(=O)(F)/C=C/c1ccc(F)cc1 [Compound 6] | 5.99 ± 0.49 µM |  |  |  | 2.98 ± 0.59 µM | 15.9 ± 0.35 µM | IC50 ([1]; read-out: IC50 MDA-MB-231, antiproliferative, MTT, 48 h exposure): 9.2 ± 1.27 µM; IC50 ([4]; MGC-803, 48 h): 44.2 ± 1.25 µM
O=S(=O)(F)/C=C/c1ccc(Cl)cc1 [Compound 7] | 9.84 ± 0.78 µM | 12.3 ± 0.64 µM |  |  | 3.02 ± 0.44 µM | 13.3 ± 0.39 µM | IC50 ([4]; MGC-803, 48 h): 12.9 ± 0.3 µM
O=S(=O)(F)/C=C/c1ccc(Br)cc1 [Compound 8] | 9.12 ± 0.82 µM | 17.5 ± 1.77 µM |  |  | 4.33 ± 0.77 µM | 10.7 ± 0.8 µM | IC50 ([4]; MGC-803, 48 h): 17.2 ± 0.41 µM
O=Cc1ccc(/C=C/S(=O)(=O)F)cc1 [Compound 15] | 13.1 ± 0.7 µM | 3.64 ± 0.22 µM | 2110 ± 190 µM | 2500 ± 220 µM | 1.87 ± 0.41 µM |  | 
CC(=O)c1cccc(/C=C/S(=O)(=O)F)c1 [Compound 21] |  |  |  |  |  |  | IC50 (human melanoma cell A375; [10]): 16.6 ± 0.91 µM; IC50 [1, 11]: 23.1 ± 2.78 µM; IC50 [2, 12]: 11.8 ± 0.6 µM; IC50 [3, 12]: 30.8 ± 2 µM
CC(=O)c1ccccc1/C=C/S(=O)(=O)F [Compound 25] |  |  | 2450 ± 250 µM | 2800 ± 310 µM |  |  | IC50 inhibitory activity against telomerase (telomerase; TRAP-PCR-ELISA, A375 cells, 24 h treatment): no
O=S(=O)(F)/C=C/c1ccc2ccccc2c1 [Compound 31] | ~3 µM | 24.1 ± 1.18 µM | 1410 ± 100 µM | 1650 ± 180 µM | 0.81 ± 0.07 µM | 33.5 ± 0.88 µM | IC50 (human melanoma cell A375; read-out: IC50 A375, antiproliferative, MTT, 48 h exposure): 3.49 ± 0.2 µM
O=S(=O)(F)/C=C/c1cccs1 [Compound 40] |  |  |  |  |  |  | IC50 (human melanoma cell A375; [10]): 6.73 ± 0.5 µM; IC50 [1, 11]: 18.3 ± 0.8 µM; IC50 [2, 12]: 35.6 ± 0.55 µM; IC50 [3, 12]: 51.3 ± 2.55 µM
O=S(=O)(F)/C=C/c1cccc2c1sc1ccccc12 [Compound 43] |  |  |  |  |  |  | IC50 (human melanoma cell A375; [10]): 38.6 ± 0.61 µM; IC50 [1, 11]: 44 ± 1.2 µM; IC50 [2, 12]: 34.5 ± 0.77 µM; IC50 [3, 12]: 24.8 ± 0.89 µM
Cc1ccc(S(=O)(=O)n2c3ccccc3c3cc(/C=C/S(=O)(=O)F)ccc32)cc1 [Compound 46] | 1.25 ± 0.07 µM |  | 2060 ± 180 µM | 1820 ± 110 µM |  | 5.37 ± 0.11 µM | IC50 (telomerase; read-out: IC50 inhibitory activity against telomerase, TRAP-PCR-ELISA, A375 cells, 24 h treatment): 1.12 ± 0.27 µM
O=S(=O)(F)/C=C/C=C/c1ccccc1 [Compound 48] | 27.4 ± 1.5 µM | 39.7 ± 1.39 µM |  |  | 40.2 ± 1.3 µM | 51 ± 1.91 µM | IC50 ([3]; Homo sapiens, SGC-7901, 48 h): 49.1 ± 1.39 µM
Cc1ccc(/C=C/C=C/S(=O)(=O)F)cc1 [Compound 49] |  |  |  |  |  |  | IC50 (human melanoma cell A375; [10]): 32.8 ± 1.44 µM; IC50 [1, 11]: 35.2 ± 1.4 µM; IC50 [2, 12]: 48.5 ± 1.65 µM; IC50 [3, 12]: 49.79 ± 0.47 µM
